Experimental data taken from patent publication US20260297083A1, “SUBSTITUTED ACETYLENE COMPOUND DERIVATIVES AND THEIR PHARMACEUTICAL USE” (AVELOS THERAPEUTICS INC., priority 2023, published 2026).

Each molecule was assayed against T1, Polθ polymerase domain (amino acids 1792-2590) (Homo sapiens, UniProt O75417) (assay: Picogreen assay of Polθ polymerase activity). Details: 12-point concentration response, 90 minutes incubation at room temperature, 8 nM Polθ in 2×polymerase mixture, read-out: PolQ IC50.
T1 construct: 10×Histidine-SUMO (N, cleaved yes); made in house; host or cells: E. coli
T1 sequence (O75417 1792-2590): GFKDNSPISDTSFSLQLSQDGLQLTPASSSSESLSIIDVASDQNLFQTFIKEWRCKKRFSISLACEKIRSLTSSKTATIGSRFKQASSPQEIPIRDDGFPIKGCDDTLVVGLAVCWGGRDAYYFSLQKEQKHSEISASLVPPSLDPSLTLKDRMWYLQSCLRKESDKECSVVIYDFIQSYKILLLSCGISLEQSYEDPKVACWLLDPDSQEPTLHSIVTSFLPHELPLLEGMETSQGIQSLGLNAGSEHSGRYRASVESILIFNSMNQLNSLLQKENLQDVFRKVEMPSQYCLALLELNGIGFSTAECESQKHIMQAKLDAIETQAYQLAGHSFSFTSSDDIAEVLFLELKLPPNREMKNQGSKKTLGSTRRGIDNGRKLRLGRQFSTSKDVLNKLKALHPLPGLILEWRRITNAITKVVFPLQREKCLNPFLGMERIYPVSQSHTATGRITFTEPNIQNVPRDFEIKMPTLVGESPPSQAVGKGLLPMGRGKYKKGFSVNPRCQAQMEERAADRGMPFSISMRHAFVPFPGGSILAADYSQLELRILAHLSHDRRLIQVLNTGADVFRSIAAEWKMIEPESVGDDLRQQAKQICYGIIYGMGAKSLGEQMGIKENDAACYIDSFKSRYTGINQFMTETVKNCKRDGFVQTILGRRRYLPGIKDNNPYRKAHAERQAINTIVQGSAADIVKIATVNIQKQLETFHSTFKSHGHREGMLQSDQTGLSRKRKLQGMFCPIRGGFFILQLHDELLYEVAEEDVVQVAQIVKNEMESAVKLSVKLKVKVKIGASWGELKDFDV
Format: biochemical
Summary of the method: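 E. coli-expressed polymerase domain with His-SUMO tag removed; 2× enzyme mix (8 nM) combined with 2× substrate mix (100 nM annealed primer/template DNA, 40 uM dNTPs). Buffer 25 mM Tris-HCl pH 7.5, 12.5 mM NaCl, 0.5 mM MgCl2, 1 mM DTT. Reaction 90 min at room temperature, then EDTA/Picogreen stain read at 485/520 nm; 12-point IC50.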

IC50 [µM]	Structure (SMILES)
0.051 to 0.1	C=CC(=O)Nc1ccncc1C#CCN(C(=O)[C@@H]1CCS(=O)(=O)N1c1cc(C(F)(F)F)cc(C)n1)c1ccc(F)c(C)c1 [compound 143, (S)-N-(3-(4-acrylamidopyridin-3-yl)prop-2-yn-1-yl)-N-(4-fluoro-3-methylphenyl)-2-(6-methyl-4-(trifluoromethyl)pyridin-2-yl)isothiazolidine-3-carboxamide 1,1-dioxide]
0.051 to 0.1	C=CC(=O)Nc1cnccc1C#CCN(C(=O)[C@@H]1CCS(=O)(=O)N1c1cc(C(F)(F)F)cc(C)n1)c1ccc(F)c(C)c1 [compound 144, (S)-N-(3-(3-acrylamidopyridin-4-yl)prop-2-yn-1-yl)-N-(4-fluoro-3-methylphenyl)-2-(6-methyl-4-(trifluoromethyl)pyridin-2-yl)isothiazolidine-3-carboxamide 1,1-dioxide]
0.001 to 0.05	Cc1cc(C(F)(F)F)cc(N2[C@H](C(=O)N(CC#Cc3ccc(C(N)=O)nc3)c3ccc(F)c(C)c3)CC3(CC3)S2(=O)=O)n1 [compound 145, (S)—N-(3-(6-carbamoylpyridin-3-yl)prop-2-yn-1-yl)-N-(4-fluoro-3-methylphenyl)-5-(6-methyl-4-(trifluoromethyl)pyridin-2-yl)-4-thia-5-azaspiro [2,4]heptane-6-carboxamide 4,4-dioxide]

What follows are molecules tested on DLD-1 BRCA2(−/−) Cell (assay: Cell viability assay (Resazurin) in DLD1-BRCA2 cells). Details: Homo sapiens, DLD-1, 336 h, 14 days, 1,500 cells/well, final DMSO 1%.
Format: cell-based
Procedure: DLD1-BRCA2 KG (Horizon Discovery, Cat #HD 105-007) cells and DLD1-parental cells were maintained in culture media (RPMI-1640 including 2 mM L-glutamin and 25 mM sodium bicarbonate, supplemented with 10% FBS), at 37° C. in a humidified atmosphere with 5% CO2. Cells were seeded at the final concentration of 1,500 cells/well (DLD1-BRCA2 KG) and 600 cells/well (DLD1-parental) in a 96-well plate. Four hours later, test compounds were added (the final concentration of DMSO was 1%) to the cells and media were replaced every 3-4 days for 14 days. To measure viability, cells were incubated in culture media supplemented with 0.1 mg/ml of Resazurin (Merck, Cat #R7017) for 4 hours. The fluorescence was measured at Ex/Em=560 nm/590 nm using EnSight multimode plate reader (Perkin Elmer). Data analysis and IC50 calculation was done using GraphPad Prism (Version 10.0.2).

Structure (SMILES)	IC50 [µM]
Cc1cc(C(F)(F)F)cc(N2C(=O)CC[C@H]2C(=O)N(CC#Cc2cncn2C)c2ccc(F)c(C)c2)n1 [Example 9, (S)-N-(4-fluoro-3-methylphenyl)-N-(3-(1-methyl-1H-imidazol-5-yl)prop-2-yn-1-yl)-1-(6-methyl-4-(trifluoromethyl)pyridin-2-yl)-5-oxopyrrolidine-2-carboxamide]	< 1
Cc1cc(C(F)(F)F)cc(N2C(=O)CC[C@H]2C(=O)N(CC#Cc2cnc(N3CCOCC3)cn2)c2ccc(F)c(C)c2)n1 [Example 10, (S)-N-(4-fluoro-3-methylphenyl)-1-(6-methyl-4-(trifluoromethyl)pyridin-2-yl)-N-(3-(5-morpholinopyrazin-2-yl)prop-2-yn-1-yl)-5-oxopyrrolidine-2-carboxamide]	< 1
CCN1CCN(c2cnc(C#CCN(C(=O)[C@@H]3CCC(=O)N3c3cc(C(F)(F)F)cc(C)n3)c3ccc(F)c(C)c3)cn2)CC1 [Example 11, (S)-N-(3-(5-(4-ethylpiperazin-1-yl)pyrazin-2-yl)prop-2-yn-1-yl)-N-(4-fluoro-3-methylphenyl)-1-(6-methyl-4-(trifluoromethyl)pyridin-2-yl)-5-oxopyrrolidine-2-carboxamide]	< 1
Cc1cc(C(F)(F)F)cc(N2C(=O)CC[C@H]2C(=O)N(CC#Cc2ccc(C(N)=O)nc2)c2ccc(F)c(C)c2)n1 [Example 12, (S)-5-(3-(N-(4-fluoro-3-methyl-phenyl)-1-(6-methyl-4-(trifluoro-methyl)pyridin-2-yl)-5-oxo-pyrrolidine-2-carboxamido)prop-1-yn-1-yl)picolinamide]	< 1
CCN1CCN(CC#CCN(C(=O)[C@@H]2CCC(=O)N2c2cc(C(F)(F)F)cc(C)n2)c2ccc(F)c(C)c2F)CC1 [Example 13, (S)—N-(2,4-difluoro-3-methylphenyl)-N-(4-(4-ethylpiperazin-1-yl)but-2-yn-1-yl)-1-(6-methyl-4-(trifluoromethyl)pyridin-2-yl)-5-oxopyrrolidine-2-carboxamide]	1.1 to 5
Cc1cc(C(F)(F)F)cc(N2C(=O)CC[C@H]2C(=O)N(CC#CCN2CCOCC2)c2ccc(F)c(C)c2F)n1 [Example 14, (S)—N-(2,4-difluoro-3-methylphenyl)-1-(6-methyl-4-(trifluoromethyl)pyridin-2-yl)-N-(4-morpholinobut-2-yn-1-yl)-5-oxopyrrolidine-2-carboxamide]	1.1 to 5
Cc1cc(C(F)(F)F)cc(N2C(=O)CC[C@H]2C(=O)N(CC#CCN2CCN(c3cnccn3)CC2)c2ccc(F)c(C)c2F)n1 [Example 15, (S)—N-(2,4-difluoro-3-methylphenyl)-1-(6-methyl-4-(trifluoromethyl)pyridin-2-yl)-5-oxo-N-(4-(4-(pyrazin-2-yl)piperazin-1-yl)but-2-yn-1-yl)pyrrolidine-2-carboxamide]	1.1 to 5
Cc1cc(C(F)(F)F)cc(N2C(=O)CC[C@H]2C(=O)N(CC#CCN2CCN(c3ncccn3)CC2)c2ccc(F)c(C)c2F)n1 [Example 16, (S)—N-(2,4-difluoro-3-methylphenyl)-1-(6-methyl-4-(trifluoromethyl)pyridin-2-yl)-5-oxo-N-(4-(4-(pyrimidin-2-yl)piperazin-1-yl)but-2-yn-1-yl)pyrrolidine-2-carboxamide]	1.1 to 5

Results, then the molecule that gave them:

IC50 [µM]	Structure (SMILES)
< 1	Cc1cccc(N(CC#Cc2ccc(N)nn2)C(=O)[C@@H]2CCC(=O)N2c2cc(C(F)(F)F)cc(C)n2)c1 [Example 1, (S)—N-(3-(6-aminopyridazin-3-yl)prop-2-yn-1-yl)-1-(6-methyl-4-(trifluoromethyl)pyridin-2-yl)-5-oxo-N-(m-tolyl)pyrrolidine-2-carboxamide]
< 1	Cc1cc(C(F)(F)F)cc(N2C(=O)CC[C@H]2C(=O)N(CC#Cc2ccc(N)nn2)c2ccc(F)c(C)c2F)n1 [Example 2, (S)-N-(3-(6-aminopyridazin-3-yl)prop-2-yn-1-yl)-N-(2,4-difluoro-3-methylphenyl)-1-(6-methyl-4-(trifluoromethyl)pyridin-2-yl)-5-oxopyrrolidine-2-carboxamide]
< 1	Cc1cc(C(F)(F)F)cc(N2C(=O)CC[C@H]2C(=O)N(CC#Cc2ccc(N)nn2)c2ccc(F)c(Cl)c2)n1 [Example 3, (S)-N-(3-(6-aminopyridazin-3-yl)prop-2-yn-1-yl)-N-(3-chloro-4-fluorophenyl)-1-(6-methyl-4-(trifluoromethyl)pyridin-2-yl)-5-oxopyrrolidine-2-carboxamide]
< 1	Cc1cc(C(F)(F)F)cc(N2C(=O)CC[C@H]2C(=O)N(CC#Cc2ccc(N)nn2)c2ccc(F)c(Cl)c2F)n1 [Example 4, (S)-N-(3-(6-aminopyridazin-3-yl)prop-2-yn-1-yl)-N-(3-chloro-2,4-difluorophenyl)-1-(6-methyl-4-(trifluoromethyl)pyridin-2-yl)-5-oxopyrrolidine-2-carboxamide]
< 1	Cc1cc(C(F)(F)F)cc(N2C(=O)CC[C@H]2C(=O)N(CC#Cc2ccc(N)nn2)c2ccc(F)c(C)c2)n1 [Example 5, (2S)-N-(3-(6-aminopyridazin-3-yl)prop-2-ynyl]-N-(4-fluoro-3-methyl-phenyl)-1-[6-methyl-4-(trifluoromethyl)-2-pyridyl]-5-oxo-pyrrolidine-2-carboxamide]
< 1	Cc1cc(C(F)(F)F)cc(N2C(=O)CC[C@H]2C(=O)N(CC#Cc2cnc(N)cn2)c2ccc(F)c(C)c2)n1 [Example 6, (2S)-N-[3-(5-aminopyrazin-2-yl)prop-2-ynyl]-N-(4-fluoro-3-methyl-phenyl)-1-[6-methyl-4-(trifluoromethyl)-2-pyridyl]-5-oxo-pyrrolidine-2-carboxamide]
< 1	Cc1cc(C(F)(F)F)cc(N2C(=O)CC[C@H]2C(=O)N(CC#Cc2cccc(=O)[nH]2)c2ccc(F)c(C)c2)n1 [Example 7, (2S)-N-(4-fluoro-3-methyl-phenyl)-1-[6-methyl-4-(trifluoromethyl)-2-pyridyl]-5-oxo-N-[3-(6-oxo-1H-pyridin-2-yl)prop-2-ynyl]pyrrolidine-2-carboxamide]
< 1	Cc1cc(C(F)(F)F)cc(N2C(=O)CC[C@H]2C(=O)N(CC#Cc2ccc(F)cn2)c2ccc(F)c(C)c2)n1 [Example 8, (S)-N-(4-fluoro-3-methylphenyl)-N-(3-(5-fluoropyridin-2-yl)prop-2-yn-1-yl)-1-(6-methyl-4-(trifluoromethyl)pyridin-2-yl)-5-oxopyrrolidine-2-carboxamide]
